Measurements reported in US20220119354A1, “DIAMINO-SUBSTITUTED PYRIDINES AND PYRIMIDINES AS HERBICIDES” (FMC Corporation, priority 2019, published 2022).

Tests used:
Assay type in all cases: in vivo
[1] = test system: ragweed (common ragweed, Ambrosia elatior); test: Test A preemergence, ragweed; settings: 0 to 100 scale; for Ragweed plant response rating: 0 is no effect, 100 is complete control
Procedure, shortened: (§1)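 Visual injury scores (0 no effect to 100 complete control) were assigned about 10 d after treatment by comparison with untreated controls. Test chemicals, formulated in a surfactant-containing non-phytotoxic solvent, were applied to soil at planting or to plants at the one- to two-leaf stage.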

[2] = test system: kochia (Kochia scoparia); test: Test A postemergence, kochia; settings: 0 to 100 scale
Procedure, shortened: as §1

[3] = test system: ducksalad (Heteranthera limosa); test: Test B flooded paddy test, ducksalad; settings: Flood, 250 g ai/ha, applied to paddy water, 2-leaf stage, visual evaluation after 13 to 15 d
Procedure, shortened: (§2)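 Each response is a visual 0–100 rating made against untreated controls, where 0 is no effect and 100 is complete control; a dash marks no result. Compound was dosed into 3 cm paddy water over 2-leaf plants, assessed after 13 to 15 d.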

[4] = test system: pigweed (Amaranthus retroflexus); test: Test A preemergence, pigweed; settings: 0 to 100 scale; for Pigweed plant response rating: 0 is no effect, 100 is complete control
Procedure, shortened: as §1

[5] = test system: barnyardgrass (Echinochloa crus-galli); test: Test A postemergence, barnyardgrass; settings: 0 to 100 scale
Procedure, shortened: as §1

[6] = test system: barnyardgrass (Echinochloa crus-galli); test: Test A preemergence, barnyardgrass; settings: 0 to 100 scale; for Barnyardgrass plant response rating: 0 is no effect, 100 is complete control
Procedure, shortened: as §1

[7] = test system: galium (catchweed bedstraw, Galium aparine); test: Test A postemergence, galium; settings: 0 to 100 scale
Procedure, shortened: as §1

[8] = test system: ryegrass, Italian (Lolium multiflorum); test: Test A postemergence, Italian ryegrass; settings: 0 to 100 scale
Procedure, shortened: as §1

[9] = test system: ryegrass, Italian (Lolium multiflorum); test: Test A preemergence, Italian ryegrass; settings: 0 to 100 scale; for Ryegrass, Italian plant response rating: 0 is no effect, 100 is complete control
Procedure, shortened: as §1

[10] = test system: sedge, umbrella (small-flower umbrella sedge, Cyperus difformis); test: Test B flooded paddy test, umbrella sedge; settings: Flood, 250 g ai/ha, applied to paddy water, 2-leaf stage, visual evaluation after 13 to 15 d
Procedure, shortened: as §2

[11] = test system: foxtail, giant (Setaria faberii); test: Test A preemergence, giant foxtail; settings: 0 to 100 scale; for Foxtail, Giant plant response rating: 0 is no effect, 100 is complete control
Procedure, shortened: as §1

[12] = test system: ragweed (common ragweed, Ambrosia elatior); test: Test A postemergence, ragweed; settings: 0 to 100 scale
Procedure, shortened: as §1

[13] = test system: barnyardgrass (Echinochloa crus-galli); test: Test B flooded paddy test, barnyardgrass; settings: Flood, 250 g ai/ha, applied to paddy water, 2-leaf stage, visual evaluation after 13 to 15 d
Procedure, shortened: as §2

[14] = test system: kochia (Kochia scoparia); test: Test A preemergence, kochia; settings: 0 to 100 scale; for Kochia plant response rating: 0 is no effect, 100 is complete control
Procedure, shortened: as §1

[15] = test system: foxtail, giant (Setaria faberii); test: Test A postemergence, giant foxtail; settings: 0 to 100 scale
Procedure, shortened: as §1

[16] = test system: corn (Zea mays); test: Test A postemergence, corn; settings: 0 to 100 scale
Procedure, shortened: as §1

[17] = test system: rice (Oryza sativa); test: Test B flooded paddy test, rice; settings: Flood, 250 g ai/ha, applied to paddy water, 2-leaf stage, visual evaluation after 13 to 15 d
Procedure, shortened: as §2

[18] = test system: blackgrass (Alopecurus myosuroides); test: Test A postemergence, blackgrass; settings: 0 to 100 scale
Procedure, shortened: as §1

[19] = test system: wheat (Triticum aestivum); test: Test A postemergence, wheat; settings: 0 to 100 scale
Procedure, shortened: as §1

[20] = test system: pigweed (Amaranthus retroflexus); test: Test A postemergence, pigweed; settings: 0 to 100 scale
Procedure, shortened: as §1

[21] = 125 g ai/ha, 0 no effect, 100 complete control
[22] = 500 g ai/ha, 0 is no effect, 100 is complete control

CCC(Nc1ncc(C(F)(F)F)c(N)n1)c1cc2ccccc2o1 (racemic) [Compound 28]
Plant response rating, Ragweed ([1]; 125 g ai/ha): 20
Plant response rating, Ragweed ([1]; 500 g ai/ha): 100
Plant response rating, Kochia ([2]; 125 g ai/ha): 30
Plant response rating, Kochia ([2]; 500 g ai/ha): 80
Plant response rating, Ducksalad (0 to 100 scale, 0 is no effect, 100 is complete control) [3]: 75
Plant response rating, Pigweed ([4]; 125 g ai/ha): 90
Plant response rating, Pigweed ([4]; 500 g ai/ha): 100
Plant response rating, Barnyardgrass ([5]; 125 g ai/ha): 0
Plant response rating, Barnyardgrass ([5]; 500 g ai/ha): 30
Plant response rating, Barnyardgrass ([6]; 125 g ai/ha): 50
Plant response rating, Barnyardgrass ([6]; 500 g ai/ha): 90
Plant response rating, Galium ([7]; 125 g ai/ha): 70
Plant response rating, Galium ([7]; 500 g ai/ha): 90
Plant response rating, Ryegrass, Italian ([8]; 125 g ai/ha): 0
Plant response rating, Ryegrass, Italian ([8]; 500 g ai/ha): 0
Plant response rating, Ryegrass, Italian ([9]; 125 g ai/ha): 20
Plant response rating, Ryegrass, Italian ([9]; 500 g ai/ha): 60
Plant response rating, Sedge, Umbrella (0 to 100 scale, 0 is no effect, 100 is complete control) [10]: 100
Plant response rating, Foxtail, Giant ([11]; 125 g ai/ha): 60
Plant response rating, Foxtail, Giant ([11]; 500 g ai/ha): 90
Plant response rating, Ragweed ([12]; 125 g ai/ha): 20
Plant response rating, Ragweed ([12]; 500 g ai/ha): 60
Plant response rating, Barnyardgrass (0 to 100 scale, 0 is no effect, 100 is complete control) [13]: 0
Plant response rating, Kochia ([14]; 125 g ai/ha): 10
Plant response rating, Kochia ([14]; 500 g ai/ha): 90
Plant response rating, Foxtail, Giant ([15]; 125 g ai/ha): 10
Plant response rating, Foxtail, Giant ([15]; 500 g ai/ha): 40
Plant response rating, Corn ([16]; 125 g ai/ha): 0
Plant response rating, Corn ([16]; 500 g ai/ha): 80
Plant response rating, Rice (0 to 100 scale, 0 is no effect, 100 is complete control) [17]: 20
Plant response rating, Blackgrass ([18]; 125 g ai/ha): 10
Plant response rating, Blackgrass ([18]; 500 g ai/ha): 80
Plant response rating, Wheat ([19]; 125 g ai/ha): 0
Plant response rating, Wheat ([19]; 500 g ai/ha): 10
Plant response rating, Pigweed ([20]; 125 g ai/ha): 90
Plant response rating, Pigweed ([20]; 500 g ai/ha): 100

CC(Nc1ncc(C(F)(F)F)c(N)n1)c1coc2cc(F)ccc12 (racemic) [Compound 51]
Ragweed plant response rating ([1]; 125 g ai/ha): 100
Ragweed plant response rating ([1]; 500 g ai/ha): 100
Plant response rating, Kochia [2, 21]: 80
Kochia plant response rating [2, 22]: 90
Plant response rating, Ducksalad (0 to 100 scale, 0 is no effect, 100 is complete control) [3]: 0
Pigweed plant response rating ([4]; 125 g ai/ha): 90
Pigweed plant response rating ([4]; 500 g ai/ha): 100
Plant response rating, Barnyardgrass [5, 21]: 0
Barnyardgrass plant response rating [5, 22]: 50
Barnyardgrass plant response rating ([6]; 125 g ai/ha): 40
Barnyardgrass plant response rating ([6]; 500 g ai/ha): 100
Plant response rating, Galium [7, 21]: 70
Galium plant response rating [7, 22]: 90
Plant response rating, Ryegrass, Italian [8, 21]: 30
Ryegrass, Italian plant response rating [8, 22]: 50
Ryegrass, Italian plant response rating ([9]; 125 g ai/ha): 60
Ryegrass, Italian plant response rating ([9]; 500 g ai/ha): 80
Plant response rating, Sedge, Umbrella (0 to 100 scale, 0 is no effect, 100 is complete control) [10]: 0
Foxtail, Giant plant response rating ([11]; 125 g ai/ha): 10
Foxtail, Giant plant response rating ([11]; 500 g ai/ha): 90
Plant response rating, Ragweed [12, 21]: 90
Ragweed plant response rating [12, 22]: 100
Plant response rating, Barnyardgrass (0 to 100 scale, 0 is no effect, 100 is complete control) [13]: 0
Kochia plant response rating ([14]; 125 g ai/ha): 90
Kochia plant response rating ([14]; 500 g ai/ha): 100
Plant response rating, Foxtail, Giant [15, 21]: 20
Foxtail, Giant plant response rating [15, 22]: 50
Plant response rating, Corn [16, 21]: 0
Corn plant response rating [16, 22]: 10
Plant response rating, Rice (0 to 100 scale, 0 is no effect, 100 is complete control) [17]: 0
Plant response rating, Blackgrass [18, 21]: 0
Blackgrass plant response rating [18, 22]: 10
Plant response rating, Wheat [19, 21]: 0
Wheat plant response rating [19, 22]: 30
Plant response rating, Pigweed [20, 21]: 100
Pigweed plant response rating [20, 22]: 100
